According to ChEMBL document CHEMBL1909046, “DrugMatrix in vitro pharmacology data”:

Experiments:
[1] = target: 5-hydroxytryptamine receptor 4 (Cavia porcellus, UniProt O70528); assay type: cell membranes, Dunkin-Hartley, Striatum, Membrane; further: in other assays of this panel Not Active means under 50% inhibition at 10 µM
Leukotriene C4 synthase = target: T1, Leukotriene C4 synthase (Cavia porcellus, UniProt A6XA80); assay: biochemical; assay type: tissue-based, Lung;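 further: enzyme inhibition assay of leukotriene C4 synthase, using LTA4 as the substrate; in other assays of this panel Not Active means under 50% inhibition at 10 µM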
T1 sequence (A6XA80 whole entry): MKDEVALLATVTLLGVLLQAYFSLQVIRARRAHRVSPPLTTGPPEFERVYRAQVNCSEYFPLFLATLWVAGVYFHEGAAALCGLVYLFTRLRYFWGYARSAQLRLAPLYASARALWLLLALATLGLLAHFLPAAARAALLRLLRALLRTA

Estrogen receptor beta = Estrogen receptor beta (Homo sapiens, UniProt Q92731); conditions: sf9; further: in other assays of this panel Not Active means under 50% inhibition at 10 µM
[2] = target: Platelet-activating factor receptor (Homo sapiens, UniProt P25105); assay: biochemical; assay type: tissue-based; conditions: platelet; further: in other assays of this panel Not Active means under 50% inhibition at 10 µM
Cytochrome P450 2D6 = Cytochrome P450 2D6 (Homo sapiens, UniProt P10635); conditions: bti-tn-5b1-4; further: in other assays of this panel Not Active means under 50% inhibition at 10 µM
[3] = DRUGMATRIX: Glutamate, NMDA, Phencyclidine radioligand binding (ligand: [3H] TCP); assay type: cell membranes, Rattus norvegicus, Wistar, Cerebral cortex, Membrane; conditions: Not Active = under 50% inhibition at 10 µM
[4] = target: T2, C-X-C chemokine receptor type 2 (Homo sapiens, UniProt P25025); assay type: cell membranes, Membrane; conditions: cho-k1; further: in other assays of this panel Not Active means under 50% inhibition at 10 µM
T2 sequence (P25025 whole entry): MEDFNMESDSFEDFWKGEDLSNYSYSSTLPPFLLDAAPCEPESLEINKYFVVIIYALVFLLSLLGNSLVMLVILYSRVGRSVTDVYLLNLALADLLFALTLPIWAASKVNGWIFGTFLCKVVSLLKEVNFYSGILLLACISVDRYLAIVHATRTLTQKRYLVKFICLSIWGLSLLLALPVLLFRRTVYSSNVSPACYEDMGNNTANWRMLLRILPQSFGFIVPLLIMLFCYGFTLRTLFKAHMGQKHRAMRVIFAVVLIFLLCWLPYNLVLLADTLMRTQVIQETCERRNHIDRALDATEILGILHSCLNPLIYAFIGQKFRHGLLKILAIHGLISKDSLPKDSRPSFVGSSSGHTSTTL

[5] = target: Sigma non-opioid intracellular receptor 1 (Homo sapiens, UniProt Q99720); assay: DRUGMATRIX: Sigma1 radioligand binding (ligand: [3H] Haloperidol); assay type: cell membranes, Jurkat, Membrane; conditions: jurkat; Not Active = under 50% inhibition at 10 µM
[6] = target: Epidermal growth factor receptor (Homo sapiens, UniProt P00533); assay: DRUGMATRIX: Protein Tyrosine Kinase, EGF Receptor enzyme inhibition (substrate: Poly(Glu:Tyr)); assay type: cell-based, Insect cells; conditions: Not Active = under 50% inhibition at 10 µM
[7] = target: T3, Muscarinic acetylcholine receptor M5 (Homo sapiens, UniProt P08912); assay type: cell membranes, CHO-K1, Membrane; conditions: cho-k1; further: in other assays of this panel Not Active means under 50% inhibition at 10 µM
T3 sequence (P08912 whole entry): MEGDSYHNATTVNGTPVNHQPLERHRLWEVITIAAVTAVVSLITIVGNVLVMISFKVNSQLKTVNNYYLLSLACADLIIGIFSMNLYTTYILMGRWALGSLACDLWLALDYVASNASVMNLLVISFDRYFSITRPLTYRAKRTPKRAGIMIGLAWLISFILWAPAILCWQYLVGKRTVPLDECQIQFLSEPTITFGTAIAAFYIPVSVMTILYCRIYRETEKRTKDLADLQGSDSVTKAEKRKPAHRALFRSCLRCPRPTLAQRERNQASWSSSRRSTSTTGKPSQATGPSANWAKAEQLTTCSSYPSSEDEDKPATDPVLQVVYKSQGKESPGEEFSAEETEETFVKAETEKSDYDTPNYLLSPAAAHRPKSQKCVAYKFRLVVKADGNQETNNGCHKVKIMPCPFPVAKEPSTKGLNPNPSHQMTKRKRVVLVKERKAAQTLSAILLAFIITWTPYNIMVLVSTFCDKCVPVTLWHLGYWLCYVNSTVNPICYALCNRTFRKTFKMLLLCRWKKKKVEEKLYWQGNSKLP

Cytochrome P450 2C9 = Cytochrome P450 2C9 (Homo sapiens, UniProt P11712); conditions: bti-tn-5b1-4; further: in other assays of this panel Not Active means under 50% inhibition at 10 µM
[8] = DRUGMATRIX: Tumor Necrosis Factor (TNF), Non-Selective radioligand binding (ligand: [125I] TNF-alpha); assay type: cell membranes, Membrane; conditions: u-937; Not Active = under 50% inhibition at 10 µM
[9] = target: Protein kinase C alpha type (Homo sapiens, UniProt P17252); assay type: cell-based; conditions: sf9
[10] = DRUGMATRIX: Platelet-Derived Growth Factor (PDGF) radioligand binding (ligand: [125I] PDGF); assay type: cell-based; conditions: nih3t3; Not Active = under 50% inhibition at 10 µM
Nitric oxide synthase 1 = Nitric oxide synthase 1 (Rattus norvegicus, UniProt P29476); assay type: tissue-based, Cerebellum; further: in other assays of this panel Not Active means under 50% inhibition at 10 µM
Nitric oxide synthase 1, sequence (P29476 whole entry): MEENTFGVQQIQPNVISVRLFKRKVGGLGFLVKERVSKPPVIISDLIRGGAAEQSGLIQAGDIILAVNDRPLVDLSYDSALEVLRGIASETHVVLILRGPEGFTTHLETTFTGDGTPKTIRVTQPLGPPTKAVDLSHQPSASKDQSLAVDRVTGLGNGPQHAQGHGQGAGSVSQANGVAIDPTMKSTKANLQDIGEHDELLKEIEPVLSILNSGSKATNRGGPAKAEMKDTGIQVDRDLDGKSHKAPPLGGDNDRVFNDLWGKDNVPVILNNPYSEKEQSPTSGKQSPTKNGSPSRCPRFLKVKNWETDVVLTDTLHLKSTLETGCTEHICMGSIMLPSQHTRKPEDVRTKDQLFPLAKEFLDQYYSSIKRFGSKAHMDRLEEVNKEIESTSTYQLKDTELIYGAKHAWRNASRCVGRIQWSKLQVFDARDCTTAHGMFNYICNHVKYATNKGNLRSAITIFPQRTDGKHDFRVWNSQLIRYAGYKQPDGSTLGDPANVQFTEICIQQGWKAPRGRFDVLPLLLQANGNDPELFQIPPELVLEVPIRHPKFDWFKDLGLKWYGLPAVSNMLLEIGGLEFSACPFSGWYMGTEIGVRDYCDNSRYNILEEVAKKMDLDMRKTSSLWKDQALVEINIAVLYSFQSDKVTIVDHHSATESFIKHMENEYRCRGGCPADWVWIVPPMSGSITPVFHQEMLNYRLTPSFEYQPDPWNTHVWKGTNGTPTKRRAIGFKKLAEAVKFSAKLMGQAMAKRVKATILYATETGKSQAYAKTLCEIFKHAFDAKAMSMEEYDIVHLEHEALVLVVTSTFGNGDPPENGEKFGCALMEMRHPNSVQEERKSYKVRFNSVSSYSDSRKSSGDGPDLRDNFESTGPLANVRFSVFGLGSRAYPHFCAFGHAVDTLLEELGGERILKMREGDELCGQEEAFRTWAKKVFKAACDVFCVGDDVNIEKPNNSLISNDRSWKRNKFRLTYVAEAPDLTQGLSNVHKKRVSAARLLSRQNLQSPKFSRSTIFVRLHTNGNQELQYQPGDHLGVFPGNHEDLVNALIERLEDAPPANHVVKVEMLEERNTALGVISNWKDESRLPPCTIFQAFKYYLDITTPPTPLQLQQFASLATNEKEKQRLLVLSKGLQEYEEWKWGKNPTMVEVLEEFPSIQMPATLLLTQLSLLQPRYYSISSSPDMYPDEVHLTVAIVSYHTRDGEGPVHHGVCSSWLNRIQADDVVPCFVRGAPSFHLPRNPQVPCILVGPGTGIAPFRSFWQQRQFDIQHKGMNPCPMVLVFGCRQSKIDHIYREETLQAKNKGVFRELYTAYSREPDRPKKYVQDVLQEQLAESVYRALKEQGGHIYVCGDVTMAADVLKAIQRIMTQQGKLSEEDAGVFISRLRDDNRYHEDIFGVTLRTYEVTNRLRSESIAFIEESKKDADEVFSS

Sigma non-opioid intracellular receptor 1, sequence (Q99720 whole entry): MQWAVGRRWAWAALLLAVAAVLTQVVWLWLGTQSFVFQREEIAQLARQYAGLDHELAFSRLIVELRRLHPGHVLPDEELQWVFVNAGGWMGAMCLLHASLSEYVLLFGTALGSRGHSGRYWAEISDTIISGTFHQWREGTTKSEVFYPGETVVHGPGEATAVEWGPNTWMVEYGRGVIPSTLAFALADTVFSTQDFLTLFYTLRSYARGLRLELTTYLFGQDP
Cytochrome P450 2D6, sequence (P10635 whole entry): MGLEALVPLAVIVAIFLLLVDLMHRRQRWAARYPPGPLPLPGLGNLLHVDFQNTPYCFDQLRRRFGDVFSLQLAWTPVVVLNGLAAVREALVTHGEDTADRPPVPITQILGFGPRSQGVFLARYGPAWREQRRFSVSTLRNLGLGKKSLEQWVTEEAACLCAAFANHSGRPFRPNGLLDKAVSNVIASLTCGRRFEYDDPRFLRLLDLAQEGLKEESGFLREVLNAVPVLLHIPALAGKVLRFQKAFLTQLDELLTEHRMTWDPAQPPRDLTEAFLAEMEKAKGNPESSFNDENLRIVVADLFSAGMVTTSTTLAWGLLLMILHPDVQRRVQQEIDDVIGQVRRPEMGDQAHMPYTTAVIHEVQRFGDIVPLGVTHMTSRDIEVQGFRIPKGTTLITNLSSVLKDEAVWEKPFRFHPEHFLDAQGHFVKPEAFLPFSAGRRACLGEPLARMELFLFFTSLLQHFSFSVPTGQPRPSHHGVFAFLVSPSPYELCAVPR
Cytochrome P450 2C9, sequence (P11712 whole entry): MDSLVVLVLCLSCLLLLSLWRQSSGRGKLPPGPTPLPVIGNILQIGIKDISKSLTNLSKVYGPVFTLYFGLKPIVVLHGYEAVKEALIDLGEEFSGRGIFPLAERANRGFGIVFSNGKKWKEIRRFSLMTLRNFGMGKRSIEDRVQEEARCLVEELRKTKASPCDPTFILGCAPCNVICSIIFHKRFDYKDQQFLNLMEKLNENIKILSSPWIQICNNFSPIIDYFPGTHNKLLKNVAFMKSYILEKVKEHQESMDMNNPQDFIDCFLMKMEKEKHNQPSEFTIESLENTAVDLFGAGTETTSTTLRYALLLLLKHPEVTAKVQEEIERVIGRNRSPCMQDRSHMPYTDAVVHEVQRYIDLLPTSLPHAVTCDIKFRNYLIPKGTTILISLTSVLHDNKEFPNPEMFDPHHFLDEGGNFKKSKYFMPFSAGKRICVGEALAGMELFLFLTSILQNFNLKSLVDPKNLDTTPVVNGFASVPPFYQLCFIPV
Platelet-activating factor receptor, sequence (P25105 whole entry): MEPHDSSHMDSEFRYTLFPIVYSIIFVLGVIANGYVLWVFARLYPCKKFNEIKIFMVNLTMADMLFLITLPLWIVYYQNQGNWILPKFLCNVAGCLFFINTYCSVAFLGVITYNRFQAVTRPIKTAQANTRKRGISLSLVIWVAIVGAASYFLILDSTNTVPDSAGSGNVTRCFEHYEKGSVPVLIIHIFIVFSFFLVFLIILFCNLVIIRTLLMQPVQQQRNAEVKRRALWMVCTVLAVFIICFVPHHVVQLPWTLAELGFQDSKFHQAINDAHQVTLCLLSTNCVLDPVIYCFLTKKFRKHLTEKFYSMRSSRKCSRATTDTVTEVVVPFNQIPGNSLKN
Estrogen receptor beta, sequence (Q92731 whole entry): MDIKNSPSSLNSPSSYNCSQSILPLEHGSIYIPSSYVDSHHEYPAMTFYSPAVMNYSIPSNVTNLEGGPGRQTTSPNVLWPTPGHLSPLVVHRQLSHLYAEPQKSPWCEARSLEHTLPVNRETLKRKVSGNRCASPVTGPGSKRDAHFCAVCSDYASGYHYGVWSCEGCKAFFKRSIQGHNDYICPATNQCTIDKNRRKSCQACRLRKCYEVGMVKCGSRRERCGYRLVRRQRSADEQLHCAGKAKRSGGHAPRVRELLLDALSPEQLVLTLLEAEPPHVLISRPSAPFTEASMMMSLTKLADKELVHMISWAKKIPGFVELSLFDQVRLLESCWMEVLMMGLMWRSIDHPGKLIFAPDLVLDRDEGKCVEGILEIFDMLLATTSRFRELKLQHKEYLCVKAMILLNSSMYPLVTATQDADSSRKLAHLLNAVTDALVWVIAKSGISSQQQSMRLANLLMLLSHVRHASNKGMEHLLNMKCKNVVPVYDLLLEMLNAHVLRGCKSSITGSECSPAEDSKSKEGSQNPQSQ
5-hydroxytryptamine receptor 4, sequence (O70528 whole entry): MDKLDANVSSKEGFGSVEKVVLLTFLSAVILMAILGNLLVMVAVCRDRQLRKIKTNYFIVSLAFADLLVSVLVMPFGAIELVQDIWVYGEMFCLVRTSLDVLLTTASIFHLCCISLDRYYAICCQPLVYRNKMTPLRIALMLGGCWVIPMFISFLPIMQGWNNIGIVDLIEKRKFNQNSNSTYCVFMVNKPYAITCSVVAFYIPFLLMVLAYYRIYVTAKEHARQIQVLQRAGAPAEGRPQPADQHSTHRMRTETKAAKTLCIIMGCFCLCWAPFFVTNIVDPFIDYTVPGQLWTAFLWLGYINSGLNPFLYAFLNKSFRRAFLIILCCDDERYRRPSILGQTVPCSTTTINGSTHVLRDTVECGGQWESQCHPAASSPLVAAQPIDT

Row | SMILES | IC50 [1] | IC50 (Leukotriene C4 synthase) | IC50 (Estrogen receptor beta) | IC50 [2] | IC50 (Cytochrome P450 2D6) | Ki (Cytochrome P450 2D6) | IC50 [3] | Ki [3] | IC50 [4] | IC50 [5] | IC50 ([6]; insect cells) | IC50 [7] | IC50 (Cytochrome P450 2C9) | Ki (Cytochrome P450 2C9) | IC50 [8] | Ki [8] | IC50 [9] | IC50 [10] | Ki [10] | IC50 (Nitric oxide synthase 1) | also measured
1 | C=C1[C@@H]2CCC3[C@@](CC[C@@H]4[C@H](C(=O)O)C[C@@H](O[C@@H]5O[C@H](CO)[C@@H](OS(=O)(=O)[O-])[C@H](OS(=O)(=O)[O-])[C@H]5OC(=O)CC(C)C)C[C@@]34C)(C2)[C@@H]1O.[K+].[K+] (stereo not given in full) [ATRACTYLOSIDE] | Not Active | Not Active | Not Active | Not Active | Not Active | Not Active | Not Active | Not Active | Not Active | Not Active | Not Active | Not Active | Not Active | Not Active | Not Active | Not Active | Not Active | Not Active | Not Active | Not Active | –
2 | Cn1cnc([N+](=O)[O-])c1Sc1ncnc2nc[nH]c12 [AZATHIOPRINE] | Not Active | Not Active | Not Active | Not Active | Not Active | Not Active | Not Active | Not Active | Not Active | Not Active | Not Active | Not Active | Not Active | Not Active | Not Active | Not Active | Not Active | Not Active | Not Active | Not Active | –
3 | CC1(C)S[C@@H]2[C@H](NC(=O)[C@H](NC(=O)N3CCNC3=O)c3ccccc3)C(=O)N2[C@H]1C(=O)O [AZLOCILLIN] | Not Active | Not Active | Not Active | Not Active | Not Active | Not Active | Not Active | Not Active | Not Active | Not Active | Not Active | Not Active | Not Active | Not Active | Not Active | Not Active | Not Active | Not Active | Not Active | Not Active | –
4 | CCOC(=O)c1ccc(N)cc1 [BENZOCAINE] | Not Active | Not Active | Not Active | Not Active | Not Active | Not Active | Not Active | Not Active | Not Active | Not Active | Not Active | Not Active | Not Active | Not Active | Not Active | Not Active | Not Active | Not Active | Not Active | Not Active | –
5 | OCc1ccccc1 [BENZYL ALCOHOL] | Not Active | Not Active | Not Active | Not Active | Not Active | Not Active | Not Active | Not Active | Not Active | Not Active | – | Not Active | Not Active | Not Active | Not Active | Not Active | Not Active | Not Active | Not Active | Not Active | Ki ([6]; insect cells): Not Active
6 | CCCC[C@@H](CC)COC(=O)c1ccccc1C(=O)OC[C@@H](CC)CCCC [BIS(2-ETHYLHEXYL)PHTHALATE] | Not Active | Not Active | Not Active | Not Active | Not Active | Not Active | Not Active | Not Active | Not Active | Not Active | Not Active | Not Active | Not Active | Not Active | Not Active | Not Active | Not Active | Not Active | Not Active | Not Active | –
7 | Oc1c(Cl)cc(Cl)cc1Sc1cc(Cl)cc(Cl)c1O [BITHIONOL] | Not Active | Not Active | Not Active | Not Active | Not Active | Not Active | Not Active | Not Active | Not Active | Not Active | – | Not Active | Not Active | Not Active | Not Active | Not Active | Not Active | Not Active | Not Active | Not Active | IC50 ([6]; read-out: IC50): 614 nM
8 | Brc1ccccc1 [BROMOBENZENE] | Not Active | Not Active | Not Active | Not Active | Not Active | Not Active | Not Active | Not Active | Not Active | Not Active | Not Active | Not Active | Not Active | Not Active | Not Active | Not Active | Not Active | Not Active | Not Active | Not Active | –
9 | CC[C@@]1(O)C(=O)OCc2c1cc1n(c2=O)Cc2cc3ccccc3nc2-1 [CAMPTOTHECIN] | Not Active | Not Active | Not Active | Not Active | Not Active | Not Active | Not Active | Not Active | Not Active | Not Active | Not Active | Not Active | Not Active | Not Active | Not Active | Not Active | Not Active | Not Active | Not Active | Not Active | –
